The record followed here is patent US8816095B2, “Na channels, disease, and related assays and compositions” (Georgetown University, priority 2008, dated 2014).

Holding throughout (type): cell-based
One assay has as its system PC-3 cells. Description: PC-3 MTT cell viability assay. The following applies: Homo sapiens, read-out: GI50 ± SEM (10 μM), DPH and JDA-3-135 previously determined. The source says: Following the determination that compound CDPNS inhibits the VGSCs that are present in androgen independent PC-3 cells, a 3-(4,5-Dimethylthiazol-2-yl)-2,5-diphenyltetrazolium bromide (MTT) cell viability assay was utilized to measure the ability of compound CDPNS to inhibit PC-3 cell growth via VGSC blockade. In this experiment data yielded from CDPNS was compared to previously determined DPH and JDA-3-135 antiproliferation data (Table 10).
(In general: Tetrazolium dyes change colour on reduction, which living cells bring about.)

The target of the next assay is T1, hNav1.5 (Homo sapiens, UniProt Q14524).
T1 construct: expressed in transfected cells; host or cells: HEK293
T1 sequence (Q14524 whole entry): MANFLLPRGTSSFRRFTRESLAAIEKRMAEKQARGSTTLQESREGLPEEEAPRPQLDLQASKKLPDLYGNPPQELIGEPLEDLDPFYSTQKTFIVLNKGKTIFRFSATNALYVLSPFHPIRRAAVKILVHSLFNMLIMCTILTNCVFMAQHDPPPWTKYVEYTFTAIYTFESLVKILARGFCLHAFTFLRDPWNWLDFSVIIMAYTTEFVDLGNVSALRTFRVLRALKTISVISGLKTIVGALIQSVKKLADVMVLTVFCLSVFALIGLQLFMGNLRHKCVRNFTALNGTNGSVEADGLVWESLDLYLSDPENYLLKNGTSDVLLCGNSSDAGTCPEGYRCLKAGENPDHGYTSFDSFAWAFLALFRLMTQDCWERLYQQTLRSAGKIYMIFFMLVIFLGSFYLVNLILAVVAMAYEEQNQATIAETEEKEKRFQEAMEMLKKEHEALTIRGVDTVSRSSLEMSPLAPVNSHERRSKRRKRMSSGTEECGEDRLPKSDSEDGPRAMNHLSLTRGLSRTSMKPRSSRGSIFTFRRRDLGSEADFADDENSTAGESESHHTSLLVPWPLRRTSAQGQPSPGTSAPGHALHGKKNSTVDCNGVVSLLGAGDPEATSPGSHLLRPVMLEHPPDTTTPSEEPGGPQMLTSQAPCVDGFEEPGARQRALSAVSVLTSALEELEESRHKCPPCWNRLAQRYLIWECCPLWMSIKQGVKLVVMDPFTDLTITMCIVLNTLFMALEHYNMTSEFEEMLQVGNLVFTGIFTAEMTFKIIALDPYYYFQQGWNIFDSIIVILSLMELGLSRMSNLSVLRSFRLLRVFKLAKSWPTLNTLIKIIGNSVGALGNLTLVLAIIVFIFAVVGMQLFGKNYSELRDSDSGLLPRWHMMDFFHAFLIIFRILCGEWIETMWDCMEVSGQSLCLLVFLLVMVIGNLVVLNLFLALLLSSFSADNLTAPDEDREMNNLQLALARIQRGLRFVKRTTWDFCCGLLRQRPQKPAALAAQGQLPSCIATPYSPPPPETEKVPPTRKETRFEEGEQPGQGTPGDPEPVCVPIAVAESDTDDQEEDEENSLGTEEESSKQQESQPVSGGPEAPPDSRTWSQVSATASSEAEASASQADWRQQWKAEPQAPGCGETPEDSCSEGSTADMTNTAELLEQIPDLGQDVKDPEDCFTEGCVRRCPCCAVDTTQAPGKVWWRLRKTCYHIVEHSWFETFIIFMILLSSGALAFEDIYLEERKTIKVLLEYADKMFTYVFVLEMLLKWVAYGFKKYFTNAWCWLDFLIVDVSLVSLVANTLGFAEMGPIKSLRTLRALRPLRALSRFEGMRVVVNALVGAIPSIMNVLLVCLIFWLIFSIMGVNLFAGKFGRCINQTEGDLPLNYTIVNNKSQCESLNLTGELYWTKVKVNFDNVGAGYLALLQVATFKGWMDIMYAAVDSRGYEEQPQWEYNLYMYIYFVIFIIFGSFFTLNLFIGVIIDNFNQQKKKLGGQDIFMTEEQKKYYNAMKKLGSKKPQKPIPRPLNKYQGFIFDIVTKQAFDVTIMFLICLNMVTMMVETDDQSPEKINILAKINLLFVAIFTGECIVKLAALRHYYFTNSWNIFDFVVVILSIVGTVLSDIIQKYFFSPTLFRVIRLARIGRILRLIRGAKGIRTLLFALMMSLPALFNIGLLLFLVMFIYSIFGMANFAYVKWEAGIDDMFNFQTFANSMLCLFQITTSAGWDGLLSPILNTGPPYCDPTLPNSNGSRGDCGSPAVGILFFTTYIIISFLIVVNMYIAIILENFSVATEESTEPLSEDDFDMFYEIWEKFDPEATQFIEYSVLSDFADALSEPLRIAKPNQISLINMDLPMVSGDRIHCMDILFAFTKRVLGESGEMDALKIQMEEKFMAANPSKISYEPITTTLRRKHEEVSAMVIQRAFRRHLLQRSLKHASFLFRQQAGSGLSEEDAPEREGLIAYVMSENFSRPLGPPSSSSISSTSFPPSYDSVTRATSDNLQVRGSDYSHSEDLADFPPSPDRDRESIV
Description: Fluorescent (FRET) based sodium channel assay, hNav1.5. The following applies: HEK293 stably transfected with hNav1.5, 10 μM veratridine, read-out: hNav 1.5 IC50. As to the method: Two isoforms of the channel were examined: hNav1.5, a cardiac sodium channel associated with arrhythmias, and hNav1.7, an isoform found in the peripheral nervous system.
HEK293 cells stably transfected with either hNav1.5 or hNav1.7 were plated at approximately 11,000-20,000 cells/well in flat bottom, poly-D-lysine coated black-wall, clear-bottom, 384-well plates (Becton Dickinson, Bedford, Mass.), and incubated overnight at 37° C. in a 10% CO2 atmosphere in growth medium. Cells were washed with 0.03 mL of Dulbecco's phosphate buffered saline (D-PBS) containing calcium and magnesium. Cells were then incubated with 0.025 mL of a solution containing 10 μM CC2-DMPE and 0.02% pluronic acid in D-PBS with calcium and magnesium; supplemented with 10 mM glucose, and 10 mM Hepes-NaOH, pH 7.4. […] At the end of the incubation period, the plate was placed in a FLIPR TETRA instrument (MDS Analytical Technologies, Sunnyvale Calif.), illuminated at 390-420 nm, and fluorescence emissions were recorded at approximately 1 Hz at 460 and 580 nm. Following a 7 second baseline reading, 0.025 mL of VIPR-S containing 10 μM veratridine for Nav1.5 or 20 μM veratridine for Nav1.7 was added to each well, and the emissions of both dyes were recorded for an additional 33 seconds. […]

A further assay addresses T2, human Nav1.2 (Homo sapiens, UniProt Q99250).
T2 construct: host or cells: HEK
Description: hNav1.2 functional block, whole-cell patch clamp. The procedure:
Of the 20 analogs tested, six had [^3H]-BTX displacement characteristics much greater then that of phenyloin (Table 7), see Schemes 5, 6, 7 and 8 for the chemical synthesis and structure of the tested compounds. Compound 26, having the greatest [^3H]-BTX displacement at 86% ([…]), was further tested for VGSC functional blocking ability in HEK cells stably expressing Nav1.2 (Table 8).
In addition the functional blocking ability of 9 was tested after site two affinities was confirmed. The potential reason for this increased blocking ability stems from the dansyl addition in a hydrophobically receptive region of the binding site in the VGSC (Anderson, J. D., et al. Mol. Cancer. Ther. 2003, 2, 1149-1154; Lenkowski, P et al. Neuropharmacology, 2007, 52, 1044-1054). This enhanced potency could be due to the dansyl substituent interacting with L1465 and 11469, located in S6 of domain III in the binding site, which are believed to be the source of hydrophobic receptivity 17. The ability to inhibit VGSC currents is an important property and represents functional blocking. The ability of CDPNS to inhibit sodium channel currents was assessed at 10 and 100 μM against human Nav1.2 by patch clamp assay (FIG. 10).
Human embryonic kidney cells (HEK) cells stably expressing human Nav1.2 were a kind gift from Dr. H. A. Hartmann (University of Baltimore, Md., USA) and were grown in DMEM/F12 media (Invitrogen, Corp, CA, USA) supplemented with 10% fetal bovine serum, penicillin (100 U/ml), streptomycin (100 μg/ml) and G418 (500 μg/ml; Sigma, Mo., USA). Cells were grown in a humidified atmosphere of 5% CO2 and 95% air at 37° C.
Sodium currents were recorded using the whole-cell configuration of the patch clamp recording technique with an Axopatch 200 amplifier (Axon Instruments, Foster City, Calif.). All voltage protocols were applied using pCLAMP 9 software (Axon, USA) and a Digidata 1322A (Axon, USA). Currents were amplified and low pass filtered (2 kHz) and sampled at 33 kHz. Borosilicate glass pipettes were pulled using a Brown-Flaming puller (model P87, Sutter Instruments Co, Novato, Calif.) and heat polished to produce electrode resistances of 0.5-1.5 MΩ when filled with the following electrode solution (in mM); CsCl 130, MgCl2 1, MgATP 5, BAPTA 10, HEPES 5 (pH adjusted to 7.4 with CsOH). Cells were plated on glass coverslips and superfused with solution containing the following composition; (in mM) NaCl 130, KCl 4, CaCl2 1, MgCl2 5, HEPES 5, and glucose 5 (pH adjusted to 7.4 with NaOH).
Compound 26 was prepared as 100 mM stock solutions in dimethyl sulfoxide (DMSO) and diluted to desired concentration in perfusion solution. The maximum DMSO concentration used was 0.1% and had no effect on current amplitude. All experiments were performed at room temperature (20-22° C.). After establishing whole-cell, a minimum series resistance compensation of 75% was applied. Sodium currents were elicited by a depolarizing step from a holding potential of −100 mV to +10 mV for a duration of 25 ms at 15 s intervals. Compound 26 was applied after a 3 min control period and continued until a steady state current amplitude was observed. All data represent percentage mean block±standard error of the mean (S.E.M.).
In general terms: The patch-clamp technique gives a direct electrical read-out from membranes.

T2 sequence (Q99250 whole entry): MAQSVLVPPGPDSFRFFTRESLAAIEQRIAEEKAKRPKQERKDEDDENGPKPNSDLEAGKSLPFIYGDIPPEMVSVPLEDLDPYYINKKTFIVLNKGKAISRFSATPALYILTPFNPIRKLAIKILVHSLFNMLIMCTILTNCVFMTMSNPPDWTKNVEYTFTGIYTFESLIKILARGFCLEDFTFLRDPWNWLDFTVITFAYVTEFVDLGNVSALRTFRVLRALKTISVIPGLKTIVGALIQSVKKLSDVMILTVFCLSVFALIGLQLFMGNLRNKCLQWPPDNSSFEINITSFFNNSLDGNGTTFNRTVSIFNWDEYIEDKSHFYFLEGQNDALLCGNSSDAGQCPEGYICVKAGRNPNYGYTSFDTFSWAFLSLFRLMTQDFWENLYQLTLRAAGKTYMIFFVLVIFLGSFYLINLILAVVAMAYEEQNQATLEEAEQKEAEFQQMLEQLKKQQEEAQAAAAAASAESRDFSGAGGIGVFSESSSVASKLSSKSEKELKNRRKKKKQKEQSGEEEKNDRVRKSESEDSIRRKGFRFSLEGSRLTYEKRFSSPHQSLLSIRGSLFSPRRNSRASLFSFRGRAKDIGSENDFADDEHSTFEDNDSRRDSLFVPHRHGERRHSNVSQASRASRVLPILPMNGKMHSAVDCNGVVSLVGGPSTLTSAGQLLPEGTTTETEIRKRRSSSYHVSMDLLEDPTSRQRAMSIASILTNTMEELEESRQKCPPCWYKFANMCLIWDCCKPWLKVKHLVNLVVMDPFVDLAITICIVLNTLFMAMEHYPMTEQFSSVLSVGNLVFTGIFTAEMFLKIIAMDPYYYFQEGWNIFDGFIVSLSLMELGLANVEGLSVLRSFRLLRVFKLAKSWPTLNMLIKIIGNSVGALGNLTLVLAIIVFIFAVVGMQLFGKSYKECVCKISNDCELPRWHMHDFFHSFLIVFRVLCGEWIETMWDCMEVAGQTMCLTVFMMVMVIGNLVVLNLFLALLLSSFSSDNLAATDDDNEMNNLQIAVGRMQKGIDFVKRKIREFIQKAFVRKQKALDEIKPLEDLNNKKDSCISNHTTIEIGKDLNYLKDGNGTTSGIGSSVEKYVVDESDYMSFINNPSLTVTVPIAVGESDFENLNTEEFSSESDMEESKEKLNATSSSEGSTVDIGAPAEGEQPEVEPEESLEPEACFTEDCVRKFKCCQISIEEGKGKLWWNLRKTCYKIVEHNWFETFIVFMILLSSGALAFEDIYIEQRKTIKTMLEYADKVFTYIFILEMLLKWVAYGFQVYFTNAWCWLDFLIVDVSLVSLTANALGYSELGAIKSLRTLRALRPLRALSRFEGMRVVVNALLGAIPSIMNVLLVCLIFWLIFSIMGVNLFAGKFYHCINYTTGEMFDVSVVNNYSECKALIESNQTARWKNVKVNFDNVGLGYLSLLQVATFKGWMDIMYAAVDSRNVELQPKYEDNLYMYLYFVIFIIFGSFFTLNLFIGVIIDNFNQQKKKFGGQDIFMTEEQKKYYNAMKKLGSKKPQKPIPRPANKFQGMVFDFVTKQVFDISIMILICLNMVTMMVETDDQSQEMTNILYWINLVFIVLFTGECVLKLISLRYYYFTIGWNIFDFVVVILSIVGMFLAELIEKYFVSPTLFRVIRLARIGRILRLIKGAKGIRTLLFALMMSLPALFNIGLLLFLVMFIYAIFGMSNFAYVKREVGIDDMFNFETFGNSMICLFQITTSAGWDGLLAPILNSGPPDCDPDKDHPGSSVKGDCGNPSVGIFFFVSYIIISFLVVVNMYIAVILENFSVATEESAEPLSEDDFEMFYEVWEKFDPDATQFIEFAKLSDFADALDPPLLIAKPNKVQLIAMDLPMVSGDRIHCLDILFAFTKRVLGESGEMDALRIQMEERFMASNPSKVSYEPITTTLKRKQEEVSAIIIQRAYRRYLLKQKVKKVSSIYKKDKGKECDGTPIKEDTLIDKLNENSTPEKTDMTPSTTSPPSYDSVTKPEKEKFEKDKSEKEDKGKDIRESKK

As a reminder, the GI50 is the concentration that inhibits growth by half. By IC50 is commonly meant the point on the concentration scale where inhibition reaches its midpoint. For `O=C1NC(=O)C(c2ccccc2)(c2ccccc2)N1` [DPH, Diphenylhydantoin, reference compound], the GI50 in the assay on PC-3 cells is greater than 100 µM. Also, at hNav1.5, the IC50 was greater than 100 µM. In addition, the “% hNaV 1.2 Functional Block (10 μM)” value on human Nav1.2 (Table 8) and at human Nav1.2 (Table 9) was 10.9 ± 4.2% throughout. For the same molecule, the “% Nav 1.2 Functional Block (10 μm)” value on human Nav1.2 (10 μm, Table 13) worked out at 10.9 ± 4.2%.
